Assay results as given in ChEMBL document CHEMBL3045806, “Antimicrobial, analgesic, DPPH scavenging activities and molecular docking study of some 1,3,5-triaryl-2-pyrazolines” (2012).
In brackets after ≈: the same amount, converted by molar mass.

Key:
Format in all cases: functional
Candida albicans [1] = assay: Antimicrobial activity against Candida albicans at 40 ug/ml after 72 hr by agar well diffusion method; conditions: read-out: IZ
Candida albicans [2] = assay: Antimicrobial activity against Candida albicans after 24 hr by micro dilution method
Aspergillus niger [3] = assay: Antimicrobial activity against Aspergillus niger at 40 ug/ml after 72 hr by agar well diffusion method; conditions: read-out: IZ
Pseudomonas aeruginosa [4] = assay: Antimicrobial activity against Pseudomonas aeruginosa after 24 hr by micro dilution method
Bacillus subtilis [5] = assay: Antimicrobial activity against Bacillus subtilis after 24 hr by micro dilution method
Streptococcus pyogenes [6] = assay: Antimicrobial activity against Streptococcus pyogenes after 24 hr by micro dilution method
[7] = Antioxidant activity assessed as DPPH scavenging activity at 10 ug/ml after 30 min by UV-visible spectrophotometry
Klebsiella pneumoniae [8] = assay: Antimicrobial activity against Klebsiella pneumoniae at 40 ug/ml after 24 hr by agar well diffusion method; conditions: read-out: IZ
Klebsiella pneumoniae [9] = assay: Antimicrobial activity against Klebsiella pneumoniae after 24 hr by micro dilution method
Mus musculus = assay: Analgesic activity in Mus musculus Swiss albino (mouse) assessed as protection against acetic acid-induced writhing at 100 mg/kg, po administered 1 hr prior challenge measured after 5 min of challenge for 20 min
Aspergillus niger [10] = assay: Antimicrobial activity against Aspergillus niger after 24 hr by micro dilution method
Bacillus subtilis [11] = assay: Antimicrobial activity against Bacillus subtilis at 40 ug/ml after 24 hr by agar well diffusion method; conditions: read-out: IZ
Streptococcus pyogenes [12] = assay: Antimicrobial activity against Streptococcus pyogenes at 40 ug/ml after 24 hr by agar well diffusion method; conditions: read-out: IZ
Pseudomonas aeruginosa [13] = assay: Antimicrobial activity against Pseudomonas aeruginosa at 40 ug/ml after 24 hr by agar well diffusion method; conditions: read-out: IZ

Row | Compound | zone of inhibition at 40 µg/mL (Candida albicans [1]) | MIC (Candida albicans [2]) | zone of inhibition at 40 µg/mL (Aspergillus niger [3]) | MIC (Pseudomonas aeruginosa [4]) | MIC (Bacillus subtilis [5]) | MIC (Streptococcus pyogenes [6]) | Activity [7] | zone of inhibition at 40 µg/mL (Klebsiella pneumoniae [8]) | MIC (Klebsiella pneumoniae [9]) | Activity (Mus musculus) | MIC (Aspergillus niger [10]) | zone of inhibition at 40 µg/mL (Bacillus subtilis [11]) | zone of inhibition at 40 µg/mL (Streptococcus pyogenes [12]) | zone of inhibition at 40 µg/mL (Pseudomonas aeruginosa [13])
1 | Cc1ccc(C2=NN(c3ccccc3)C(c3ccc(C)cc3)C2)cc1 (stereo unspecified) | 22 mm | 30 µg/mL (≈ 91.9 µM) | 24 mm | 40 µg/mL (≈ 123 µM) | 30 µg/mL (≈ 91.9 µM) | 20 µg/mL (≈ 61.3 µM) | 22.4% | 24 mm | 30 µg/mL (≈ 91.9 µM) | 58.16% | 40 µg/mL (≈ 123 µM) | 20 mm | 22 mm | 23 mm
2 | OC(Cn1cncn1)(Cn1cncn1)c1ccc(F)cc1F [FLUCONAZOLE] | 23 mm |  | 24 mm |  |  |  |  |  |  |  |  |  |  | 
3 | c1ccc(C2=NN(c3ccccc3)C(c3ccccc3)C2)cc1 (stereo unspecified) | 21 mm | 30 µg/mL (≈ 101 µM) | 23 mm | 30 µg/mL (≈ 101 µM) | 40 µg/mL (≈ 134 µM) | 40 µg/mL (≈ 134 µM) | 23.1% | 23 mm | 40 µg/mL (≈ 134 µM) | 57.8% | 30 µg/mL (≈ 101 µM) | 23 mm | 23 mm | 22 mm
4 | c1ccc(-c2ccc(C3=NN(c4ccccc4)C(c4ccc(-c5ccccc5)cc4)C3)cc2)cc1 (stereo unspecified) | 21 mm | 40 µg/mL (≈ 88.8 µM) | 22 mm | 30 µg/mL (≈ 66.6 µM) | 40 µg/mL (≈ 88.8 µM) | 40 µg/mL (≈ 88.8 µM) | 18.2% | 23 mm | 30 µg/mL (≈ 66.6 µM) | 53.1% | 40 µg/mL (≈ 88.8 µM) | 23 mm | 21 mm | 22 mm
5 | Fc1ccc(C2=NN(c3ccccc3)C(c3ccc(F)cc3)C2)cc1 (stereo unspecified) | 20 mm | 40 µg/mL (≈ 120 µM) | 20 mm | 40 µg/mL (≈ 120 µM) | 30 µg/mL (≈ 89.7 µM) | 30 µg/mL (≈ 89.7 µM) | 51.2% | 22 mm | 30 µg/mL (≈ 89.7 µM) | 49.65% | 40 µg/mL (≈ 120 µM) | 21 mm | 23 mm | 20 mm
6 | COc1ccc(C2=NN(c3ccccc3)C(c3ccc(OC)cc3)C2)cc1 (stereo unspecified) | 20 mm | 40 µg/mL (≈ 112 µM) | 21 mm | 30 µg/mL (≈ 83.7 µM) | 40 µg/mL (≈ 112 µM) | 40 µg/mL (≈ 112 µM) | 39.6% | 22 mm | 30 µg/mL (≈ 83.7 µM) | 58.74% | 30 µg/mL (≈ 83.7 µM) | 21 mm | 23 mm | 24 mm
7 | CC(=O)Oc1ccccc1C(=O)O [ASPIRIN] |  |  |  |  |  |  |  |  |  | 58.25% |  |  |  | 
8 | O=C(O)c1cn(C2CC2)c2cc(N3CCNCC3)c(F)cc2c1=O [CIPROFLOXACIN] |  |  |  |  |  |  |  | 24 mm |  |  |  | 24 mm | 24 mm | 24 mm
9 | Brc1ccc(C2=NN(c3ccccc3)C(c3ccc(Br)cc3)C2)cc1 (stereo unspecified) | 20 mm | 20 µg/mL (≈ 43.8 µM) | 20 mm | 30 µg/mL (≈ 65.8 µM) | 40 µg/mL (≈ 87.7 µM) | 40 µg/mL (≈ 87.7 µM) | 40.3% | 21 mm | 40 µg/mL (≈ 87.7 µM) | 53.75% | 40 µg/mL (≈ 87.7 µM) | 23 mm | 21 mm | 22 mm
10 | Clc1ccc(C2=NN(c3ccccc3)C(c3ccc(Cl)cc3)C2)cc1 (stereo unspecified) | 21 mm | 30 µg/mL (≈ 81.7 µM) | 22 mm | 30 µg/mL (≈ 81.7 µM) | 30 µg/mL (≈ 81.7 µM) | 30 µg/mL (≈ 81.7 µM) | 31.8% | 20 mm | 30 µg/mL (≈ 81.7 µM) | 50% | 30 µg/mL (≈ 81.7 µM) | 22 mm | 24 mm | 21 mm
11 | O=C1O[C@H]([C@@H](O)CO)C(O)=C1O |  |  |  |  |  |  | 69.2% |  |  |  |  |  |  | 
